Experiments:
Assay in all cases: relative viability (nuclei count vs DMSO), 5 days (fraction); higher = more cells survive
[1] = test system: ABC-1
In short: (§1)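 Lung cancer cell lines were seeded in 1536-well plates and dosed by pin tool the next day, with either a single drug or a fixed anchor-drug dose combined with five library-drug doses (not always all listed) spaced in √10 steps. Five days later, one step fixed the cells and stained their nuclei (final 0.05% Triton X-100, 1% formaldehyde, 1 ug/ml Hoechst), and nuclei were counted on 4× images. Relative viability is the nuclei count in treated wells divided by the count in vehicle wells, and each value is the median of duplicate plates.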

[2] = test system: HCC-78
In short: as §1

[3] = test system: HOP-62
In short: as §1

[4] = test system: LCLC-97TM1
In short: as §1

[5] = test system: LOU-NH91
In short: as §1

[6] = test system: NCI-H1355
In short: as §1

[7] = test system: NCI-H1437
In short: as §1

[8] = test system: NCI-H1755
In short: as §1

[9] = test system: NCI-H1792
In short: as §1

[10] = test system: NCI-H2009
In short: as §1

[11] = test system: NCI-H2023
In short: as §1

[12] = test system: NCI-H2085
In short: as §1

[13] = test system: NCI-H2170
In short: as §1

[14] = test system: NCI-H23
In short: as §1

[15] = test system: NCI-H2405
In short: as §1

[16] = test system: NCI-H322M
In short: as §1

[17] = test system: NCI-H441
In short: as §1

[18] = test system: NCI-H650
In short: as §1

[19] = test system: NCI-H727
In short: as §1

[20] = test system: RERF-LC-KJ
In short: as §1

[21] = test system: SK-MES-1
In short: as §1

[22] = test system: UMC-11
In short: as §1

## O=C(O)CCCCC(CCSCc1ccccc1)SCc1ccccc1 (centres undefined) [CPI-613] + Cc1nc(NC(=O)N2CCC[C@H]2C(N)=O)sc1-c1ccnc(C(C)(C)C(F)(F)F)c1 [Alpelisib] (partner 2 µM)
[1]; first compound 5 µM
  relative viability: 1.02
[1]; first compound 15.81 µM
  relative viability: 1.2
[1]; first compound 50 µM
  relative viability: 1.26
[1]; first compound 158.11 µM
  relative viability: 0.39
[1]; first compound 500 µM
  relative viability: 0.223
[2]; first compound 5 µM
  relative viability: 0.26
[2]; first compound 15.81 µM
  relative viability: 0.309
[2]; first compound 158.11 µM
  relative viability: 0.338
[2]; first compound 500 µM
  relative viability: 0.358
[3]; first compound 5 µM
  relative viability: 1.07
[3]; first compound 15.81 µM
  relative viability: 0.833
[3]; first compound 50 µM
  relative viability: 0.916
[3]; first compound 158.11 µM
  relative viability: 0.189
[3]; first compound 500 µM
  relative viability: 0.246
[4]; first compound 5 µM
  relative viability: 0.216
[4]; first compound 15.81 µM
  relative viability: 0.254
[4]; first compound 50 µM
  relative viability: 0.311
[4]; first compound 158.11 µM
  relative viability: 0.139
[4]; first compound 500 µM
  relative viability: 0.0641
[5]; first compound 5 µM
  relative viability: 0.73
[5]; first compound 15.81 µM
  relative viability: 0.679
[5]; first compound 50 µM
  relative viability: 0.743
[5]; first compound 158.11 µM
  relative viability: 0.728
[5]; first compound 500 µM
  relative viability: 0.718
[6]; first compound 5 µM
  relative viability: 0.834
[6]; first compound 15.81 µM
  relative viability: 0.813
[6]; first compound 50 µM
  relative viability: 0.918
[6]; first compound 158.11 µM
  relative viability: 0.413
[6]; first compound 500 µM
  relative viability: 0.134
[7]; first compound 5 µM
  relative viability: 0.944
[7]; first compound 15.81 µM
  relative viability: 0.961
[7]; first compound 50 µM
  relative viability: 1.03
[7]; first compound 158.11 µM
  relative viability: 0.16
[7]; first compound 500 µM
  relative viability: 0.0244
[8]; first compound 5 µM
  relative viability: 0.91
[8]; first compound 15.81 µM
  relative viability: 0.89
[8]; first compound 50 µM
  relative viability: 0.837
[8]; first compound 158.11 µM
  relative viability: 0.769
[8]; first compound 500 µM
  relative viability: 0.251
[9]; first compound 5 µM
  relative viability: 0.675
[9]; first compound 15.81 µM
  relative viability: 0.646
[9]; first compound 50 µM
  relative viability: 0.71
[9]; first compound 158.11 µM
  relative viability: 0.555
[9]; first compound 500 µM
  relative viability: 0.709
[10]; first compound 5 µM
  relative viability: 1.19
[10]; first compound 15.81 µM
  relative viability: 1.1
[10]; first compound 50 µM
  relative viability: 1.12
[10]; first compound 158.11 µM
  relative viability: 0.141
[10]; first compound 500 µM
  relative viability: 0.014
[11]; first compound 5 µM
  relative viability: 0.624
[11]; first compound 15.81 µM
  relative viability: 0.576
[11]; first compound 50 µM
  relative viability: 0.548
[11]; first compound 158.11 µM
  relative viability: 0.0809
[11]; first compound 500 µM
  relative viability: 0.0084
[12]; first compound 5 µM
  relative viability: 1.01
[12]; first compound 15.81 µM
  relative viability: 0.927
[12]; first compound 50 µM
  relative viability: 0.906
[12]; first compound 158.11 µM
  relative viability: 0.591
[12]; first compound 500 µM
  relative viability: 0.242
[13]; first compound 5 µM
  relative viability: 0.808
[13]; first compound 15.81 µM
  relative viability: 0.766
[13]; first compound 50 µM
  relative viability: 0.796
[13]; first compound 158.11 µM
  relative viability: 0.547
[13]; first compound 500 µM
  relative viability: 0.483
[14]; first compound 5 µM
  relative viability: 0.684
[14]; first compound 15.81 µM
  relative viability: 0.604
[14]; first compound 50 µM
  relative viability: 0.685
[14]; first compound 158.11 µM
  relative viability: 0.143
[14]; first compound 500 µM
  relative viability: 0.0565
[15]; first compound 5 µM
  relative viability: 0.882
[15]; first compound 15.81 µM
  relative viability: 0.78
[15]; first compound 50 µM
  relative viability: 0.778
[15]; first compound 158.11 µM
  relative viability: 0.772
[15]; first compound 500 µM
  relative viability: 0.734
[16]; first compound 5 µM
  relative viability: 0.746
[16]; first compound 15.81 µM
  relative viability: 0.721
[16]; first compound 50 µM
  relative viability: 0.729
[16]; first compound 158.11 µM
  relative viability: 0.416
[16]; first compound 500 µM
  relative viability: 0.757
[17]; first compound 5 µM
  relative viability: 0.692
[17]; first compound 15.81 µM
  relative viability: 1.01
[17]; first compound 50 µM
  relative viability: 0.573
[17]; first compound 158.11 µM
  relative viability: 0.216
[17]; first compound 500 µM
  relative viability: 0.007
[18]; first compound 5 µM
  relative viability: 1.18
[18]; first compound 15.81 µM
  relative viability: 1.06
[18]; first compound 50 µM
  relative viability: 1.06
[18]; first compound 158.11 µM
  relative viability: 0.931
[18]; first compound 500 µM
  relative viability: 0.892
[19]; first compound 5 µM
  relative viability: 0.531
[19]; first compound 15.81 µM
  relative viability: 0.558
[19]; first compound 50 µM
  relative viability: 0.662
[19]; first compound 158.11 µM
  relative viability: 0.226
[19]; first compound 500 µM
  relative viability: 0.0618
[20]; first compound 5 µM
  relative viability: 0.748
[20]; first compound 15.81 µM
  relative viability: 1.34
[20]; first compound 50 µM
  relative viability: 0.757
[20]; first compound 158.11 µM
  relative viability: 0.869
[20]; first compound 500 µM
  relative viability: 0.733
[21]; first compound 5 µM
  relative viability: 0.894
[21]; first compound 15.81 µM
  relative viability: 0.982
[21]; first compound 50 µM
  relative viability: 0.784
[21]; first compound 158.11 µM
  relative viability: 0.724
[21]; first compound 500 µM
  relative viability: 0.785
[22]; first compound 5 µM
  relative viability: 0.89
[22]; first compound 15.81 µM
  relative viability: 0.964
[22]; first compound 50 µM
  relative viability: 1.02
[22]; first compound 158.11 µM
  relative viability: 0.398
[22]; first compound 500 µM
  relative viability: 0.0725
